From the supplement of paper PMC13380429

Tests used:
Details in all cases: 72 h
Vero E6 [1] = assay: relative viability EC50 (midpoint between 100% and the lowest measured viability); higher = less toxic
U2OS [2] = assay: as above
Caco-2 [3] = assay: as above
Calu-3 [4] = assay: as above
HepG2 [5] = assay: as above
Vero E6 [6] = assay: cell viability relative to DMSO; higher = less toxic
U2OS [7] = assay: as above
Caco-2 [8] = assay: as above
Calu-3 [9] = assay: as above
HepG2 [10] = assay: as above
Vero E6 [11] = assay: drug sensitivity score (DSS) for viability; higher = more toxic; extreme values may be limits of the assay
U2OS [12] = assay: as above
Caco-2 [13] = assay: as above
Calu-3 [14] = assay: as above
HepG2 [15] = assay: as above

Row | SMILES | relative viability EC50 (Vero E6 [1]) | relative viability EC50 (U2OS [2]) | relative viability EC50 (Caco-2 [3]) | relative viability EC50 (Calu-3 [4]) | relative viability EC50 (HepG2 [5]) | cell viability (Vero E6 [6]; 1 nM) | cell viability (Vero E6 [6]; 10 nM) | cell viability (Vero E6 [6]; 100 nM) | cell viability (Vero E6 [6]; 1000 nM) | cell viability (Vero E6 [6]; 10000 nM) | cell viability (U2OS [7]; 1 nM) | cell viability (U2OS [7]; 10 nM) | cell viability (U2OS [7]; 100 nM) | cell viability (U2OS [7]; 1000 nM) | cell viability (U2OS [7]; 10000 nM) | cell viability (Caco-2 [8]; 1 nM) | cell viability (Caco-2 [8]; 10 nM) | cell viability (Caco-2 [8]; 100 nM) | cell viability (Caco-2 [8]; 1000 nM) | cell viability (Caco-2 [8]; 10000 nM) | cell viability (Calu-3 [9]; 1 nM) | cell viability (Calu-3 [9]; 10 nM) | cell viability (Calu-3 [9]; 100 nM) | cell viability (Calu-3 [9]; 1000 nM) | cell viability (Calu-3 [9]; 10000 nM) | cell viability (HepG2 [10]; 1 nM) | cell viability (HepG2 [10]; 10 nM) | cell viability (HepG2 [10]; 100 nM) | cell viability (HepG2 [10]; 1000 nM) | cell viability (HepG2 [10]; 10000 nM) | drug sensitivity score (Vero E6 [11]) | drug sensitivity score (U2OS [12]) | drug sensitivity score (Caco-2 [13]) | drug sensitivity score (Calu-3 [14]) | drug sensitivity score (HepG2 [15])
1 | Cn1ccnc1S [methimazole] | > 10 µM | > 10 µM | > 10 µM | > 10 µM | > 10 µM | 104% | 99.3% | 102% | 106% | 101% | 98% | 101% | 98.7% | 99.8% | 98.5% | 99.3% | 84.3% | 99.7% | 86.5% | 101% | 93.9% | 97.3% | 100% | 100% | 94.5% | 109% | 95.4% | 109% | 81.7% | 101% | 0 | 0 | 0 | 0 | 0
2 | COc1ccc(-c2cc(=O)c3c(O)cc(O)cc3o2)cc1O [diosmetin] | > 10 µM | > 10 µM | > 10 µM | > 10 µM | > 10 µM | 95.2% | 96.8% | 91% | 101% | 113% | 94.2% | 93.1% | 101% | 96.2% | 90.2% | 95.9% | 91.6% | 101% | 96.6% | 86.3% | 93.2% | 104% | 91.5% | 93.7% | 78.3% | 97.7% | 109% | 94.6% | 120% | 86.7% | 0 | 0 | 0.4 | 1 | 0
3 | CN(Cc1cccc(-c2ccccc2)c1)C(=O)Oc1ccc(-c2ccc(C(N)=O)cc2)cc1 [WWL-123] | > 10 µM | > 10 µM | > 10 µM | > 10 µM | > 10 µM | 101% | 100% | 101% | 99.5% | 98.3% | 101% | 98.7% | 102% | 98% | 101% | 99.1% | 95.4% | 98.1% | 91.8% | 84.8% | 101% | 99.7% | 101% | 105% | 99.4% | 95.9% | 110% | 108% | 102% | 100% | 0 | 0 | 0.4 | 0 | 0
4 | O=C(O)c1ccccc1NCCc1ccccc1 [tromaril] | > 10 µM | > 10 µM | > 10 µM | > 10 µM | > 10 µM | 97.5% | 99.5% | 99% | 102% | 95.5% | 102% | 102% | 101% | 96.4% | 101% | 97% | 97% | 96.9% | 96.2% | 102% | 106% | 94.5% | 99.3% | 90.1% | 106% | 102% | 101% | 93.8% | 104% | 95% | 0 | 0 | 0 | 0 | 0
5 | Cc1ncc(C[n+]2csc(CCO)c2C)c(N)n1 [thiamine] | > 10 µM | > 10 µM | > 10 µM | > 10 µM | > 10 µM | 95.7% | 108% | 98.4% | 102% | 99.7% | 104% | 104% | 102% | 105% | 99.1% | 107% | 103% | 100% | 96.9% | 102% | 104% | 91.6% | 99.6% | 104% | 105% | 96% | 103% | 96.2% | 105% | 88.2% | 0 | 0 | 0 | 0 | 0
6 | Cc1[nH]c(=O)c(C#N)cc1-c1ccc2nccn2c1 [olprinone] | > 10 µM | > 10 µM | > 10 µM | > 10 µM | > 10 µM | 98.5% | 106% | 94.2% | 102% | 96.7% | 105% | 102% | 101% | 99.9% | 102% | 98.7% | 99.6% | 91.2% | 92% | 94.8% | 107% | 112% | 93.2% | 104% | 98.3% | 93.2% | 102% | 103% | 104% | 104% | 0 | 0 | 0 | 0 | 0
7 | Oc1c(Cl)cc(Cl)cc1Sc1cc(Cl)cc(Cl)c1O [bithionol] | > 10 µM | > 10 µM | > 10 µM | > 10 µM | > 10 µM | 97.3% | 107% | 89.9% | 94.8% | 96.4% | 103% | 93.8% | 104% | 98.6% | 104% | 104% | 88.5% | 99% | 86% | 89.2% | 92.6% | 95.7% | 102% | 97.3% | 111% | 101% | 89.3% | 93% | 83.1% | 86.3% | 0 | 0 | 0.4 | 0 | 1.7
8 | CCCCOc1cc(C(=O)OCCN(CC)CC)ccc1N [oxybuprocaine] | > 10 µM | > 10 µM | > 10 µM | > 10 µM | > 10 µM | 103% | 105% | 101% | 102% | 97.9% | 104% | 96.7% | 105% | 101% | 101% | 106% | 96.9% | 98.7% | 100% | 100% | 96% | 106% | 110% | 107% | 98.7% | 105% | 117% | 95.7% | 97.8% | 90% | 0 | 0 | 0 | 0 | 0
9 | CC[C@H]1OC(=O)[C@H](C)[C@@H](O[C@H]2C[C@@](C)(OC)[C@@H](O)[C@H](C)O2)[C@H](C)[C@@H](O[C@@H]2O[C@H](C)C[C@H](N(C)C)[C@H]2O)[C@](C)(O)C[C@@H](C)CN(C)[C@H](C)[C@@H](O)[C@]1(C)O [azithromycin] | > 10 µM | > 10 µM | > 10 µM | > 10 µM | > 10 µM | 107% | 103% | 100% | 99.7% | 101% | 95.5% | 98.7% | 104% | 96.6% | 98.2% | 89.6% | 104% | 96.7% | 101% | 92.2% | 96.2% | 94.5% | 104% | 89.8% | 106% | 111% | 105% | 83.5% | 105% | 92% | 0 | 0 | 0 | 0 | 0
10 | COc1cc(C(=O)NCc2ccc(OCCN(C)C)cc2)cc(OC)c1OC [trimethobenzamide] | > 10 µM | > 10 µM | > 10 µM | > 10 µM | > 10 µM | 96.1% | 99.7% | 93.2% | 99.1% | 99.9% | 97.6% | 93.8% | 102% | 97.4% | 100% | 95.9% | 94.3% | 99.2% | 87.8% | 99.7% | 103% | 84.6% | 98.2% | 93.6% | 101% | 98.2% | 106% | 99.5% | 101% | 107% | 0 | 0 | 0 | 0 | 0
11 | Oc1nc(O)c2cn[nH]c2n1 [oxypurinol] | > 10 µM | > 10 µM | > 10 µM | > 10 µM | > 10 µM | 96.1% | 103% | 98.5% | 101% | 100% | 101% | 102% | 93.6% | 99.5% | 99.8% | 107% | 100% | 98% | 97.7% | 97.1% | 95.6% | 108% | 97.2% | 107% | 94.6% | 108% | 86.2% | 104% | 101% | 96% | 0 | 0 | 0 | 0 | 0
12 | CC(C)c1cccc2c1OC(C(C)C)C(=S)N2CC(=O)O (centres undefined) [AD-5467] | > 10 µM | > 10 µM | > 10 µM | > 10 µM | > 10 µM | 95.7% | 102% | 93.5% | 99.3% | 95.1% | 102% | 98.5% | 98.9% | 96.5% | 98% | 91.3% | 96.9% | 91.2% | 91.9% | 96.4% | 104% | 106% | 92% | 91.1% | 107% | 93.6% | 97.2% | 98.5% | 98% | 96.6% | 0 | 0 | 0 | 0 | 0
13 | Cn1c(=O)c2[nH]c(Br)nc2n(C)c1=O [pamabrom] | – | > 10 µM | > 10 µM | > 10 µM | > 10 µM | – | – | – | – | – | 98.6% | 99.8% | 97.9% | 102% | 96.4% | 90.3% | 103% | 91% | 109% | 101% | 105% | 99.3% | 100% | 103% | 105% | 100% | 94.8% | 92.9% | 89.7% | 112% | – | 0 | 0 | 0 | 0
14 | C#C[C@]1(O)CC[C@H]2[C@@H]3CCc4cc(OC)ccc4[C@H]3CC[C@@]21C [mestranol] | – | > 10 µM | > 10 µM | > 10 µM | > 10 µM | – | – | – | – | – | 102% | 98.6% | 96.7% | 101% | 96.1% | 96.8% | 106% | 102% | 100% | 82.7% | 89.6% | 102% | 108% | 104% | 103% | 113% | 104% | 107% | 103% | 97.5% | – | 0 | 0.4 | 0 | 0
15 | CN1CCC[C@@H]1Cc1c[nH]c2ccc(CCS(=O)(=O)c3ccccc3)cc12 [eletriptan] | – | > 10 µM | > 10 µM | > 10 µM | > 10 µM | – | – | – | – | – | 98.6% | 104% | 94.6% | 104% | 96.3% | 96.5% | 98% | 104% | 105% | 96.1% | 88.5% | 102% | 97.8% | 95.2% | 87.3% | 103% | 99.6% | 96.7% | 95.6% | 97% | – | 0 | 0 | 0.1 | 0
